molecular target: 5α-reductase; assay: Inhibitory activity on 5α-reductase in vitro (conversion of [4-C^14]-testosterone to dihydrotestosterone); format: biochemical; conditions: male rat prostate enzyme, 60 mins at 37° C., pH 7.4; compounds of the present invention
Method: Inhibitory activity on 5-reductase in vitro
The test was carried out with reference to the method of J. Shimazaki et al [See Endocrinol, Japon., 18, 179 (1971)).]
Male rat's prostate (4 g) was homogenized with its triple volume of 0.1M HEPES buffer (PH 7.4) including 0.25M cane sugar and was centrifuged at 3000 r.p.m. for 10 mins.
The precipitate was suspended into the buffer solution described above (10 ml), and the suspension was centrifuged at 3000 r.p.m for 5 mins. The resulting precipitate was suspended in the buffer solution(3 ml) described above and was used as a sauce of enzyme.
A reaction mixture (total volume 0.1 ml) of [4-C^14 ]-testosterone (1.5 n mol, 1.5×10^3 cpm), NADPH (0.5 μmol), enzyme solution (0.03 ml) described above and several kinds of concentration of the compounds in the present invention was incubated for 60 mins at 37° C. Enzyme reaction was quenched by addition of a mixture (0.4 ml) of chloroform and methanol (1:2), and the mixture was centrifuged at 2000 r.p.m for 3 mins. The supernatant (50 μl) was spotted on silica gel thin layer plate. The spot on the plate was developed with a mixture of chloroform, methanol and acetic acid (99.2:0. 6:0.2). Radioactivity of dihydrotestosteron generated on plate was measured by TLC scanner of radio-autography and inhibitory ratio was calculated.

IC50 [nM]	Structure (SMILES)
90	CCCCCOc1c(Cl)cc(/C(C)=C/C(=O)Nc2ccccc2OCCCC(=O)O)cc1Cl [Example 1, 4-[2-(3,5-dichloro-4-pentyloxy-β-methylcinnamoylamino)phenoxy]butanoic acid]
1600	CCCCCOc1c(OC)cc(/C(C)=C/C(=O)Nc2ccccc2OCCCC(=O)O)cc1OC [Example 1-1, 4-[2-(3,5-dimethoxy-4-pentyloxy-β-methylcinnomoylamino)phenoxyl] butanoic acid]
1800	CCCCCOc1cc(/C(C)=C/C(=O)Nc2ccccc2OCCCC(=O)O)cc(OCCCCC)c1OCCCCC [Example 1-2]
2100	CCCCCOc1c(C)cc(/C(C)=C/C(=O)Nc2ccccc2OCCCC(=O)O)cc1C [Example 1-3, 4-[2-(3,5-dimethyl-4-pentyloxy-β-methylcinnamoylamino)phenoxy] butanoic acid]
1000	COc1c(C(C)(C)C)cc(/C(C)=C/C(=O)Nc2ccccc2OCCCC(=O)O)cc1C(C)(C)C [Example 1-4, 4-[2-(3,5-di-tert-butyl-methoxy-β-methylcinnamoylamino)phenoxy] butanoic acid]
5600	CCCCCOc1ccc(/C(C)=C/C(=O)Nc2ccccc2OCCCC(=O)O)c(Cl)c1Cl [Example 1-5, 4-[2-(2,3-dichloro-4-pentyloxy-β-methylcinnomoylamino)phenoxy] butanoic acid]
3300	CCCOc1cc(/C(C)=C/C(=O)Nc2ccccc2OCCCC(=O)O)cc(OCCC)c1OCCC [Example 1-7, 4-[2-(3,4,5-tripropoxy-β-methylcinnamoylamino)phenoxy] butanoic acid]
1700	CCCCOc1cc(/C(C)=C/C(=O)Nc2ccccc2OCCCC(=O)O)cc(OCCCC)c1OCCCC [Example 1-8]
9700	CCOc1cc(/C(C)=C/C(=O)Nc2ccccc2OCCCC(=O)O)cc(OCC)c1OCC [Example 1-9, 4-[2-(3,4,5-triethoxy-β-methylcinnamoylamino)phenoxy] butanoic acid]
110	C/C(=C\C(=O)Nc1ccccc1OCCCC(=O)O)c1ccc(CC(C)C)cc1 [Example 1-10, 4-[2-(4-isobutyl-β-methylcinnamoylamino)phenoxy] butanoic acid]
200	CCCCc1ccc(/C(C)=C/C(=O)Nc2ccccc2OCCCC(=O)O)cc1 [Example 1-11, 4-[2-(4-butyl-β-methylcinnomoylamino)phenoxy] butanoic acid]
260	CCCc1ccc(/C(C)=C/C(=O)Nc2ccccc2OCCCC(=O)O)cc1 [Example 1-12, 4-[2-(4-propyl-β-methylcinnamoylamino)phenoxy] utanoic acid]
280	CCC(C)c1ccc(/C(C)=C/C(=O)Nc2ccccc2OCCCC(=O)O)cc1 (stereo not drawn) [Example 1-14, 4-[2-(4-sec-butyl-β-methylcinnomoylamino)phenoxy] butanoic acid]
2200	CCCCCOc1cc(/C(C)=C/C(=O)Nc2ccccc2OCCCC(=O)O)c([N+](=O)[O-])cc1OCCCCC [Example 1-15, 4-[2-(2-nitro-4,5-dipentyloxy-β-methylcinnomoylamino)phenoxy] butanoic acid]
530	CCCCCOc1cc(/C=C(\C)C(=O)Nc2ccccc2OCCCC(=O)O)cc(OCCCCC)c1OCCCCC [Example 1-16]

Structure (SMILES)	IC50 [nM]
CCCCOc1c(Cl)cc(/C(C)=C/C(=O)Nc2ccccc2OCCCC(=O)O)cc1Cl [Example 1-6, 4-[2-(3,5-dichloro-4-butoxy-β-methylcinnamoylamino)phenyoxy] butanoic acid]	1600
CCCCOc1ccc(/C(C)=C/C(=O)Nc2ccccc2OCCCC(=O)O)cc1 [Example 1-13, 4-[2-(4-butoxy-β-methylcinnamoylamino)phenoxy] utanoic acid]	380

— patent US4863963A, “Novel cinnamoylamide derivatives” (Ono Pharmaceutical Co., Ltd., priority 1987, dated 1989)
